The nature of assay [1]: Inhibition of FLT3 ITD mutant in human MOLM13 cells assessed as reduction in cell viability incubated for 72 hrs by MTT assay. (In general: Formazan colour is commonly taken as a measure of viable cells.)
A short description of assay [2]: Inhibition of JAK2 V617F mutant in mouse BaF3 cells assessed as reduction in cell viability incubated for 72 hrs by MTT assay.
The nature of assay [3]: Inhibition of JAK2 V617F mutant in human SET-2 cells assessed as reduction in cell viability incubated for 72 hrs by MTT assay.

Where only a bound is given, the exact number is not on record here.

The record followed here is BindingDB's records for doi:10.1021/acs.jmedchem.0c01488 (West China Hospital of Sichuan University, 2020).

With `Cc1cnc(Nc2ccc(N3CCC(N(C)CCO)CC3)c(F)c2)nc1-c1cnn(C(C)C)c1`, in assay [1], the IC50 – broadly, the concentration that inhibits the measured activity by half – was 72 nM.
With `Cc1cnc(Nc2ccc3c(c2)CCN3CCO)nc1-c1cnn(C(C)C)c1`, the IC50 amounted to 2060 nM in assay [1], 4390 nM in assay [2] and 3790 nM in assay [3].
In the case of `Cc1cnc(Nc2ccc3c(c2)CN(CCO)C3)nc1-c1cnn(C(C)C)c1`, the IC50 in assay [1] stood at 1780 nM.
Take `Cc1cnc(Nc2ccc3c(c2)CCN(CCO)C3)nc1-c1cnn(C(C)C)c1`: the concentration for half-maximal inhibition (IC50) in assay [1] came out at 1260 nM; in assay [2], 431 nM; in assay [3] it was 323 nM.
The matching figures for `Cc1cnc(Nc2ccc3c(c2)CCN(CCCO)C3)nc1-c1cnn(C(C)C)c1`: 1320 nM, 365 nM and 394 nM.
With `CC(C)n1cc(-c2nc(Nc3ccc4c(c3)CCN(C(=O)CO)C4)ncc2F)cn1`, the half-maximal inhibitory concentration (IC50) in assay [1] turned out to be 453 nM; in assay [2] it was 679 nM; in assay [3], 574 nM.
As to `Cc1cnc(Nc2ccc3c(c2)CCN(C(=O)Nc2cccc(Cl)c2)C3)nc1-c1cnn(C(C)C)c1`, the concentration for half-maximal inhibition (IC50) in assay [1] is 2070 nM; in assay [2], 2180 nM; in assay [3], 3450 nM.
For `CCNC(=O)N1CCc2cc(Nc3ncc(C)c(-c4cnn(C(C)C)c4)n3)ccc2C1` the same measures were 1070 nM, 1890 nM and 2350 nM.
For `CC(C)n1cc(-c2nc(Nc3ccc4c(c3)CCN(CCCO)C4)ncc2F)cn1` the same measures were 453 nM, 392 nM and 311 nM.
For `CCCNC(=O)N1CCc2cc(Nc3ncc(C)c(-c4cnn(C(C)C)c4)n3)ccc2C1`, the figures for the 50% inhibitory concentration (IC50) in assay [1], in assay [2] and in assay [3] were 2070 nM, 1210 nM and 1760 nM, respectively.
For the compound `Cc1cnc(Nc2cc3c(cc2F)CN(CCO)CC3)nc1-c1cnn(C(C)C)c1`, the IC50 was > 5000 nM in assay [1], 2570 nM in assay [2] and 4460 nM in assay [3].
For `CC(C)n1cc(-c2nc(Nc3ccc4c(c3)CCN(CCO)C4)ncc2F)cn1` the same measures were 547 nM, 760 nM and 651 nM.
The matching figures for `CC(C)n1cc(-c2nc(Nc3ccc4c(c3)CCN(CCCCO)C4)ncc2F)cn1`: 455 nM, 445 nM and 604 nM.
As for `CC(C)n1cc(-c2nc(Nc3ccc4c(c3)CCN(CCCCCO)C4)ncc2F)cn1`, the IC50 in assay [1] was found to be 353 nM; in assay [2], 420 nM; in assay [3], 492 nM.
The matching figures for `Cc1cnc(Nc2ccc3c(c2)CCN(CCCCO)C3)nc1-c1cnn(C(C)C)c1`: 879 nM, 234 nM and 268 nM.
Regarding `Cc1cnc(Nc2ccc3c(c2)CCN(CCCCCO)C3)nc1-c1cnn(C(C)C)c1`, in assay [1], the IC50 is 965 nM.
As to `CCOCCN1CCc2cc(Nc3ncc(C)c(-c4cnn(C(C)C)c4)n3)ccc2C1`, the half-inhibitory concentration (IC50) in assay [1] is 568 nM; in assay [2] it was 302 nM; in assay [3], 339 nM.
The matching figures for `CCCCN1CCc2cc(Nc3ncc(C)c(-c4cnn(C(C)C)c4)n3)ccc2C1`: 754 nM, 640 nM and 592 nM.
Regarding `C=CCN1CCc2cc(Nc3ncc(C)c(-c4cnn(C(C)C)c4)n3)ccc2C1`, the IC50 in assay [1] is 868 nM; in assay [2], 452 nM; in assay [3], 288 nM.
For the compound `Cc1cnc(Nc2ccc3c(c2)CCN(CC#N)C3)nc1-c1cnn(C(C)C)c1`, the IC50 in assay [1] amounted to 647 nM; in assay [3] it was 73 nM.
For `Cc1cnc(Nc2ccc3c(c2)CCN(CCC#N)C3)nc1-c1cnn(C(C)C)c1`, the IC50 turned out to be 356 nM in assay [1], 177 nM in assay [2] and 296 nM in assay [3].
In the case of `C#CCN1CCc2cc(Nc3ncc(C)c(-c4cnn(C(C)C)c4)n3)ccc2C1`, the 50% inhibitory concentration (IC50) in assay [1] is 1480 nM.
In the case of `CC#CCN1CCc2cc(Nc3ncc(C)c(-c4cnn(C(C)C)c4)n3)ccc2C1`, the results for the IC50 in assay [1], in assay [2] and in assay [3] were 1560 nM, 908 nM and 794 nM, respectively.
For `COC(=O)/C=C/CN1CCc2cc(Nc3ncc(C)c(-c4cnn(C(C)C)c4)n3)ccc2C1` the same measures were 497 nM, 10 nM and 14 nM.
The matching figures for `COC(=O)CCCN1CCc2cc(Nc3ncc(C)c(-c4cnn(C(C)C)c4)n3)ccc2C1`: 1290 nM, 938 nM and 1040 nM.
For the compound `Cc1cnc(Nc2ccc3c(c2)CCN(C(=O)/C=C/C(=O)c2ccccc2)C3)nc1-c1cnn(C(C)C)c1`, the figures for the IC50 in assay [1] and in assay [3] were 458 nM and 52 nM, respectively.
As for `Cc1ccc(C(=O)/C=C/C(=O)N2CCc3cc(Nc4ncc(C)c(-c5cnn(C(C)C)c5)n4)ccc3C2)cc1`, the IC50 in assay [1] amounted to 758 nM; in assay [2], 13 nM; in assay [3], 15 nM.
For `Cc1ccc(C(=O)CCC(=O)N2CCc3cc(Nc4ncc(C)c(-c5cnn(C(C)C)c5)n4)ccc3C2)cc1` the same measures were 1060 nM, 784 nM and 626 nM.
With `Cc1cnc(Nc2ccc3c(c2)CCN(C(=O)/C=C/CN(C)C)C3)nc1-c1cnn(C(C)C)c1`, the concentration for half-maximal inhibition (IC50) came out at 880 nM in assay [1] and 12 nM in assay [3].
For `Cc1cnc(Nc2ccc3c(c2)CCN(C(=O)CCCN(C)C)C3)nc1-c1cnn(C(C)C)c1`, the half-inhibitory concentration (IC50) was determined as 1480 nM in assay [1], 2480 nM in assay [2] and 985 nM in assay [3].
For `Cc1cnc(Nc2ccc3c(c2)CCN(C/C=C/C(=O)O)C3)nc1-c1cnn(C(C)C)c1` the same measures were 845 nM, 128 nM and 334 nM.
Take `Cc1cnc(Nc2ccc3c(c2)CCN(C/C=C/C(=O)NCCN2CCCCC2)C3)nc1-c1cnn(C(C)C)c1`: the concentration for half-maximal inhibition (IC50) in assay [1] stood at 2090 nM; in assay [2], 1200 nM; in assay [3], 554 nM.
For `Cc1cnc(Nc2ccc3c(c2)CCN(C/C=C/C(=O)NC(C)(C)C)C3)nc1-c1cnn(C(C)C)c1` the same measures were 1060 nM, 145 nM and 612 nM.
The matching figures for `CCN(CC)C(=O)/C=C/CN1CCc2cc(Nc3ncc(C)c(-c4cnn(C(C)C)c4)n3)ccc2C1`: 656 nM, 287 nM and 329 nM.
For `Cc1cnc(Nc2ccc3c(c2)CN(CC#N)CC3)nc1-c1cnn(C(C)C)c1` the same measures were 425 nM, 76 nM and 95 nM.
Consider `Cc1cnc(Nc2ccc3c(n2)CCN(CCCO)C3)nc1-c1cnn(C(C)C)c1`, for which the 50% inhibitory concentration (IC50) in assay [1] is 2570 nM; in assay [2], 1430 nM; in assay [3], 2180 nM.
For `Cc1cnc(Nc2ccc3c(c2)CN(C(=O)/C=C/CN(C)C)CC3)nc1-c1cnn(C(C)C)c1` the same measures were 456 nM, 25 nM and 15 nM.
Take `Cc1ccc(C(=O)/C=C/C(=O)N2CCc3ccc(Nc4ncc(C)c(-c5cnn(C(C)C)c5)n4)cc3C2)cc1`: in assay [1], the concentration for half-maximal inhibition (IC50) came to 629 nM.
`COC(=O)/C=C/CN1CCc2ccc(Nc3ncc(C)c(-c4cnn(C(C)C)c4)n3)cc2C1`: the IC50 in assay [1] was 430 nM; in assay [2], 120 nM; in assay [3], 72 nM.
For `Cc1cnc(Nc2ccc3c(c2)CN(C(=O)/C=C/C(=O)c2ccccc2)CC3)nc1-c1cnn(C(C)C)c1` the same measures were 535 nM, 61 nM and 43 nM.
